Laboratory results published in US7625718B2, “SVCT2 transporters expressed in blood brain barrier cells” (XenoPort, Inc., priority 2005, dated 2009).

Assays:
PgP = molecular target: T1, PgP (Homo sapiens, UniProt P08183); experiment: Transwell monolayer efflux assay in TREx-PgP MDCK cells; type: in vitro ADME
T1 construct: expressed in transfected cells; host or cells: MDCK cells, tetracycline-inducible
Experimental: Transwell monolayer efflux assays can be performed by transfecting MDCK cells with the tetracycline-inducible TREx-PgP expression vector. The cells optionally can be transfected with a nucleic acid encoding the transporter of interest. The transfected cells are seeded on polycarbonate filter membranes in transwell dishes and grown for 3-5 days, yielding a polarized monolayer with tight junctions between cells.

hSVCT2 [1] = molecular target: T2, hSVCT2 (Homo sapiens, UniProt Q9UGH3); experiment: hSVCT2 competition uptake assay in HEK-TREx-hSVCT2 cells; type: cell-based
T2 construct: expressed in transfected cells; host or cells: HEK-TREx cells, tetracycline-induced
T2 sequence (Q9UGH3 whole entry): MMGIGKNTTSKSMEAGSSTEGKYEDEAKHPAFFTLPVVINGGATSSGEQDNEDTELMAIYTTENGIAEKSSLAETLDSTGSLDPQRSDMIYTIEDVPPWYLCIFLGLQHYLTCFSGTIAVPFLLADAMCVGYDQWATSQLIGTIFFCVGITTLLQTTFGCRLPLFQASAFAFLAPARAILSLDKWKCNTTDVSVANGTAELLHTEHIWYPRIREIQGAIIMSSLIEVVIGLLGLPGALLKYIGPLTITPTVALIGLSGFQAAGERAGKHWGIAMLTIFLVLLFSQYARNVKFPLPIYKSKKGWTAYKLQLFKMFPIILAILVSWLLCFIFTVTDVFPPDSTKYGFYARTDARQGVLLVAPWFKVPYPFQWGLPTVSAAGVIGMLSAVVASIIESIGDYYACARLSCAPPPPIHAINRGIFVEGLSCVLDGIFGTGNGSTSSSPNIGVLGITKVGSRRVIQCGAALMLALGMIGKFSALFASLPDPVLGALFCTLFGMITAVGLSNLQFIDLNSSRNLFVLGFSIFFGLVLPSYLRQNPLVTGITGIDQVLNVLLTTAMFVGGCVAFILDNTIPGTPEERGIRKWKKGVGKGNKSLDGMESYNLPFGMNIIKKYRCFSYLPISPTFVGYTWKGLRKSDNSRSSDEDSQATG
Experimental: A modified competition uptake assay was developed to determine the ability of a test compound(s) to inhibit the uptake of radiolabeled substrates into […] induced to over-express hSVCT2. The results are stated as affinities (IC50). The competition uptake assay was prepared as follows: Compounds were prepared for assay by diluting a 100 mM stock concentration (in DMSO) to the appropriate working concentration. Typically, seven-point dose response curves were prepared starting at a final assay concentration of 1 mM and carrying out three-fold dilutions. […] Scintillation fluid (200 μl) (Optiphase Supermix (Perkin Elmer) was added to each well, and the plate was covered with a 96-well adhesive plate cover and placed on a shaker for 10 minutes. The plates were counted on a 96-well plate scintillation counter for 60 sec/well. The data were analyzed using a sigmoidal dose response curve-fitting program (Prism, GraphPad, Inc, San Diego, Calif.; equation: one-site competition). FIG. 2 depicts the results of a competition experiment using HEK-TREx-SVCT2 cells. ^3H-Ascorbic acid was used as the substrate and unlabeled ascorbic acid was used as the competitor. […] Non-specific uptake was determined by measuring the uptake into cells not induced to express the transporter (“no tet”). […]

hSVCT2 [2] = molecular target: T2, hSVCT2; experiment: hSVCT2 direct uptake assay in HEK-TREx-hSVCT2 cells (LC-MS-MS); type: cell-based; conditions: HEK-TREx-hSVCT2 cells induced to express hSVCT2
Experimental: A modified direct uptake assay was developed to determine the ability of test compounds to be transported into HEK-TREx cells induced to over-express hSVCT2. Four concentrations (bracketing the affinity as measured by competition assays) per compound were routinely tested. Non-specific uptake was determined by measuring the uptake into cells not induced to express the transporter (“no tet”).
The direct uptake assays were prepared as follows: Compounds were prepared for assay by diluting a 100 mM stock concentration (in DMSO or water, depending on compound solubility) to the appropriate working concentration. Typically, four concentrations bracketing the IC50 were tested. The highest test concentration for each compound was made in an Eppendorf tube and diluted into HBSS. The samples were robustly vortexed and centrifuged for 10 minutes at 13,200 rpm to spin down any precipitate. The supernatant from these samples (˜150 μl/well) was carefully removed and placed into six wells of row A (cmpd 1: A1-6; cmpd 2: A7-12) or row E (cmpd 3: E1-6; cmpd 4: E7-12) of a 96-well polypropylene “compound” plate. Three additional 2-fold dilutions were made in the subsequent rows (B-D or […]) in HBSS. […]

[3] = 2.5 nM, in the presence of 250 μM verapamil

T1 sequence (P08183 whole entry): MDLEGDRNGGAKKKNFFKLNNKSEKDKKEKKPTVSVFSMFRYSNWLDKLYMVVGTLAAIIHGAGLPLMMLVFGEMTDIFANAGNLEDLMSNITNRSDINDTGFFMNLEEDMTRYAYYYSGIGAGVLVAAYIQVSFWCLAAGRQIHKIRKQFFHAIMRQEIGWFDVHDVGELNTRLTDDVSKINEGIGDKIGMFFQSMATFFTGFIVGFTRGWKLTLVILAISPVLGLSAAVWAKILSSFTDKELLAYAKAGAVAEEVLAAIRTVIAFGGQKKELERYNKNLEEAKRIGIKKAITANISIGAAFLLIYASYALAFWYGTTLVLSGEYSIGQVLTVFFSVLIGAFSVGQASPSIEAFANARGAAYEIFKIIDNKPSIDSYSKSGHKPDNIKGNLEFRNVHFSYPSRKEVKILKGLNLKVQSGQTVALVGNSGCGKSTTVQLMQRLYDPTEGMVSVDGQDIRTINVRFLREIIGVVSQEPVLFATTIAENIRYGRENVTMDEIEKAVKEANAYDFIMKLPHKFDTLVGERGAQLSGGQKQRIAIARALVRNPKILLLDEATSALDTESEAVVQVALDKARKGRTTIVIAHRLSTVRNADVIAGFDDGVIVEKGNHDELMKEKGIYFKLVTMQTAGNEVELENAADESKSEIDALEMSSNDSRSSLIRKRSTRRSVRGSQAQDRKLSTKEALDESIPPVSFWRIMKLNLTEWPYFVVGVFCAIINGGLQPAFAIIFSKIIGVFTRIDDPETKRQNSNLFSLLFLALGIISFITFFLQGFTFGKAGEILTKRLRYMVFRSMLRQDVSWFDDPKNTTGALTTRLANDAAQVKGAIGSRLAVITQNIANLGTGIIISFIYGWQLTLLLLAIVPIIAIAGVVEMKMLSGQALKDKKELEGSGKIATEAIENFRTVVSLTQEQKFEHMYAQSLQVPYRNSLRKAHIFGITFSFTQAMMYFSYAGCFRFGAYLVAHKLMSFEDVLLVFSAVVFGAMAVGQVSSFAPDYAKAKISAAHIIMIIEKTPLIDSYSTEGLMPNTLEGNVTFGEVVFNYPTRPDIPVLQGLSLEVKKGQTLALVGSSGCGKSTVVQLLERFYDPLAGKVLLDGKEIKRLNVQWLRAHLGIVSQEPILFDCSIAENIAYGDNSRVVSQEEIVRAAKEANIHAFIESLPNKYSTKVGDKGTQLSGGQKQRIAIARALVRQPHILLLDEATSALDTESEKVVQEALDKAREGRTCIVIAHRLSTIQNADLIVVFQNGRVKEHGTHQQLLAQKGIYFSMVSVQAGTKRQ

Row | SMILES | efflux transporter substrate status (PgP) | apical to basolateral transport (PgP; [3]) | basolateral to apical transport (PgP; [3]) | uptake of labeled ascorbic acid as concentration of unlabeled ascorbic acid increased (hSVCT2 [1]; cells induced to express SVCT2, ^3H-ascorbic acid substrate, FIG. 2) | IC50 (hSVCT2 [1]; inhibition of radiolabeled ascorbic acid uptake, HEK-TREx-hSVCT2 cells induced to express hSVCT2) | Direct Uptake Vmax (hSVCT2 [2])
1 | CC[C@]1(O)C[C@@H]2CN(CCc3c([nH]c4ccccc34)[C@@](C(=O)OC)(c3cc4c(cc3OC)N(C)[C@H]3[C@@](O)(C(=O)OC)[C@H](OC(C)=O)[C@]5(CC)C=CCN6CC[C@]43[C@@H]65)C2)C1 [^3H-vinblastine] | substrate of PgP | strongly increased | strongly decreased | – | – | –
2 | O=C1O[C@H]([C@@H](O)CO)C(O)=C1O [Ascorbic Acid] | – | – | – | decreased | 55 µM | 21 pmol/min/well
